{"source": "patent US20210186977A1", "about": "“MEDICAL USES” (priority 2018, published 2021)", "system": "Herpes Zoster (varicella zoster virus)", "assay": "Valaciclovir prophylaxis against HZ activation in patients receiving CellProtect infusions", "assay_type": "in vivo, human", "settings": "500 mg twice daily for 6 months following infusions; patients 110 and 111; within 12 months following prophylaxis", "protocol": "Since the development of HZ was clearly associated with the NK cell infusions in the first four patients the last two patients (110 and 111) were treated with high dose valaciclovir, 500 mg twice daily for 6 months following the infusions.", "data": [{"smiles": "CC(C)[C@H](N)C(=O)OCCOCn1cnc2c(=O)[nH]c(N)nc21", "note": "[valaciclovir]", "values": [{"measurement": "Signs of HZ activation", "result": "did not show any signs of HZ activation"}]}]}
